Results from ChEMBL document CHEMBL1155095, “Synthesis and cytotoxicity of aurilide analogs” (Bioorg Med Chem Lett, 2008).
In brackets after ≈: the same amount, converted by molar mass.

Test system: HeLa
Test: Cytotoxicity against human HeLa S3 cells
Assay type: functional, cell-based

| Compound | IC50 [µg/mL] |
| --- | --- |
| CC/C=C(\C)[C@H]1OC(=O)[C@H](C)N(C)C(=O)[C@@H](C(C)C)NC(=O)CN(C)C(=O)[C@@H](CC(C)C)N(C)C(=O)[C@H](C(C)C)NC(=O)[C@@H]([C@@H](C)CC)OC(=O)/C(C)=C/C[C@H](OC(=O)CCCCCNC(=O)CCC(=O)O)[C@@H]1C | > 10 |
| CC/C=C(\C)[C@H]1OC(=O)[C@H](C)N(C)C(=O)[C@H](C(C)C)NC(=O)CN(C)C(=O)[C@@H](CC(C)C)N(C)C(=O)[C@H](C(C)C)NC(=O)[C@@H]([C@@H](C)CC)OC(=O)/C(C)=C/C[C@H](OC(=O)CCCCCNC(=O)OCC2c3ccccc3-c3ccccc32)[C@@H]1C | 0.42 (≈ 0.359 µM) |
| CC/C=C(\C)[C@H]1OC(=O)[C@H](C)N(C)C(=O)[C@H](C(C)C)NC(=O)CN(C)C(=O)[C@@H](CC(C)C)N(C)C(=O)[C@H](CCCCNC(=O)OC(C)(C)C)NC(=O)[C@@H]([C@@H](C)CC)OC(=O)/C(C)=C/C[C@H](O)[C@@H]1C | 0.032 (≈ 0.0332 µM) |
| CC/C=C(\C)[C@H]1OC(=O)[C@H](C)N(C)C(=O)[C@@H](C(C)C)NC(=O)CN(C)C(=O)[C@@H](CC(C)C)N(C)C(=O)[C@H](C(C)C)NC(=O)[C@@H]([C@@H](C)CC)OC(=O)/C(C)=C/C[C@H](O)[C@@H]1C | > 4 |
| CC/C=C(\C)[C@H]1OC(=O)[C@H](C)N(C)C(=O)[C@H](C(C)C)NC(=O)CN(C)C(=O)[C@@H](CC(C)C)N(C)C(=O)[C@H](C(C)C)NC(=O)[C@@H]([C@@H](C)CC)OC(=O)/C(C)=C/C[C@H](OC(=O)CCCCCNC(=O)CCC(=O)O)[C@@H]1C | 0.14 (≈ 0.134 µM) |
| CC/C=C(\C)[C@H]1OC(=O)[C@H](C)N(C)C(=O)[C@H](CCCCNC(=O)OC(C)(C)C)NC(=O)CN(C)C(=O)[C@@H](CC(C)C)N(C)C(=O)[C@H](C(C)C)NC(=O)[C@@H]([C@@H](C)CC)OC(=O)/C(C)=C/C[C@H](O)[C@@H]1C | 0.26 (≈ 0.27 µM) |
| CC/C=C(\C)[C@H]1OC(=O)[C@H](CCCCNC(=O)OC(C)(C)C)N(C)C(=O)[C@H](C(C)C)NC(=O)CN(C)C(=O)[C@@H](CC(C)C)N(C)C(=O)[C@H](C(C)C)NC(=O)[C@@H]([C@@H](C)CC)OC(=O)/C(C)=C/C[C@H](O)[C@@H]1C | 0.02 (≈ 0.0202 µM) |
| CC/C=C(\C)[C@H]1OC(=O)[C@H](C)N(C)C(=O)[C@H](C(C)C)NC(=O)CN(C)C(=O)[C@@H](CC(C)C)N(C)C(=O)[C@H](C(C)C)NC(=O)[C@@H]([C@@H](C)CC)OC(=O)/C(C)=C/CC[C@@H]1C [DEOXYAURILIDE] | 0.017 (≈ 0.0208 µM) |
| CC/C=C(\C)[C@H]1OC(=O)[C@H](C)N(C)C(=O)[C@H](C(C)C)NC(=O)CN(C)C(=O)[C@@H](CC(C)C)N(C)C(=O)[C@H](C(C)C)NC(=O)[C@@H]([C@@H](C)CC)OC(=O)/C(C)=C/C[C@H](O)[C@@H]1C [AURILIDE] | 0.0024 (≈ 0.00288 µM) |
